The text below walks through data of patent publication US20250215029A1 (Recludix Pharma, Inc., priority 2022, published 2025).

Each structure is given as a SMILES string.

For test [1], the target named is T1, Recombinant STAT6 protein (STAT6 (W123-T658)) (Homo sapiens, UniProt P42226).
T1 construct: Recombinant STAT6 protein (STAT6 (W123-T658))
T1 sequence (P42226 123-658): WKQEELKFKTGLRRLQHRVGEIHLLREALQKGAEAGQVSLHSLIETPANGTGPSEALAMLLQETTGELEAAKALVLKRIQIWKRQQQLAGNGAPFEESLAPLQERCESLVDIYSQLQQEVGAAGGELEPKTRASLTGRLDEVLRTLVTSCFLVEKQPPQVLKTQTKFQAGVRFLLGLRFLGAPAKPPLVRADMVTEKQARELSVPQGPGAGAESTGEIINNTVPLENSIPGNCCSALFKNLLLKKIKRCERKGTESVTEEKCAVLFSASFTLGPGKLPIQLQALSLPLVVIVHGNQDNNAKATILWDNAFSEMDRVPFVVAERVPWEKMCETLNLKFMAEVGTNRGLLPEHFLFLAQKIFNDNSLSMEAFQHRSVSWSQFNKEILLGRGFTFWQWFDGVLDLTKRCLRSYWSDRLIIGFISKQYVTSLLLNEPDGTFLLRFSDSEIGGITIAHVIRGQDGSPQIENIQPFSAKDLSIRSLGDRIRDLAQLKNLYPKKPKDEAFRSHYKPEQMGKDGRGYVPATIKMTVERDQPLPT
The test is described as follows: STAT6 Fluorescence Polarization (FP) Assay. The following applies: STAT6 (W123-T658) 250 nM, probe 5-FAM-Ap[…]-NH2 2 nM, 45-minute incubation; read-out: STAT6 (FP assay IC50 class). The class given is binding. Put shortly: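 Recombinant STAT6 (W123-T658) at 250 nM mixed with 2 nM 5-FAM phosphotyrosine peptide probe in HEPES pH 7.4 buffer with DTT, 1% DMSO final, added to serially diluted compounds. FP (mP) read after 45 min at room temperature; IC50 by nonlinear regression vs log concentration.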

Test [2] has as its target T2, Recombinant STAT3 protein (STAT3 (G127-I722)) (Homo sapiens, UniProt P40763).
T2 construct: Recombinant STAT3 protein (STAT3 (G127-I722))
The experiment in a line: STAT3 Fluorescence Polarization (FP) Assay. The format is binding. The following applies: STAT3 (G127-I722) 25 nM, probe 5-FAM-GpYLPQTV-NH2 2 nM, 45-minute incubation; read-out: STAT3 (FP assay IC50 class). Put shortly: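 In this competition FP format, STAT3 residues G127-I722 (25 nM) and 2 nM 5-FAM-GpYLPQTV-NH2 met test compounds for 45 min at room temperature. IC50 values result from fitting mP signal against log concentration by nonlinear regression.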

T2 sequence (P40763 127-722): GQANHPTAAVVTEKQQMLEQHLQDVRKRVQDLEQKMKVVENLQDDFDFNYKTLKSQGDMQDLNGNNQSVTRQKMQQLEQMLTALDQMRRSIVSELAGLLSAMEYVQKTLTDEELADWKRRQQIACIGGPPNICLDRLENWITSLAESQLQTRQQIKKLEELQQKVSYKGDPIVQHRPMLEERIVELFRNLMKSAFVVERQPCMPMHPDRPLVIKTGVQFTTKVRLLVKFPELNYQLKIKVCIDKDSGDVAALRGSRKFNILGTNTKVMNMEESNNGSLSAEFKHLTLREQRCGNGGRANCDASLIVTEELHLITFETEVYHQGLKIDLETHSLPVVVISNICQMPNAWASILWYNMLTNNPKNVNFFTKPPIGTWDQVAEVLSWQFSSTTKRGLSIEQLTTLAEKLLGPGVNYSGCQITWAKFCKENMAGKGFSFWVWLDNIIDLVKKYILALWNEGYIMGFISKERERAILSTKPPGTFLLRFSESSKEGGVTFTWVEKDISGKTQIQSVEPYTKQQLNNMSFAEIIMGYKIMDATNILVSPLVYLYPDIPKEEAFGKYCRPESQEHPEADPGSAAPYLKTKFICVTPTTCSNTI

Regarding `CN(Cc1cc[nH]c(=O)c1)C(=O)[C@@H]1CC[C@@H]2CCCC[C@H](NC(=O)c3cc4cc(C(F)(F)P(=O)(O)O)ccc4s3)C(=O)N21` [Compound 800, (difluoro(2-(((3S,6S,10aS)-3-(methyl((2-oxo-1,2-dihydropyridin-4-yl)methyl)carbamoyl)-5-oxodecahydropyrrolo [1,2-a]azocin-6-yl)carbamoyl)benzo [b]thiophen-5-yl)methyl) phosphonic acid], the IC50 is 300 to 3000 nM in test [1] and 1000 to 10000 nM in test [2].
With `O=C(N[C@H]1CCCC[C@H]2CC[C@@H](C(=O)N3Cc4cccnc4C3)N2C1=O)c1cc2cc(C(F)(F)P(=O)(O)O)ccc2s1` [Compound 801, ((2-(((3S,6S,10aS)-3-(6,7-dihydro-5H-pyrrolo[3,4-b]pyridine-6-carbonyl)-5-oxodecahydropyrrolo [1,2-a]azocin-6-yl)carbamoyl)benzo [b]thiophen-5-yl)difluoromethyl) phosphonic acid], the IC50 in test [1] was in the range of 3000 to 30000 nM; in test [2], 100 to 1000 nM.
`O=C(N[C@H]1CCCC[C@H]2CC[C@@H](C(=O)N3CCc4[nH]ncc4C3)N2C1=O)c1cc2cc(C(F)(F)P(=O)(O)O)ccc2s1` [Compound 802, (difluoro(2-(((3S,6S,10aS)-5-oxo-3-(4,5,6,7-tetrahydro-1H-pyrazolo[4,3-c]pyridine-5-carbonyl)decahydropyrrolo[1,2-a]azocin-6-yl)carbamoyl)benzo [b]thiophen-5-yl)methyl) phosphonic acid]: the figures for the half-inhibitory concentration (IC50) in test [1] and in test [2] were 300 to 3000 nM and 1000 to 10000 nM, respectively.
The corresponding values for `O=C(N[C@H]1CCCC[C@H]2CC[C@@H](C(=O)N3CC(c4ccc[nH]c4=O)C3)N2C1=O)c1cc2cc(C(F)(F)P(=O)(O)O)ccc2s1` [Compound 803, (difluoro(2-(((3S,6S,10aS)-5-oxo-3-(3-(2-oxo-1,2-dihydropyridin-3-yl)azetidine-1-carbonyl)decahydropyrrolo[1,2-a]azocin-6-yl)carbamoyl)benzo [b]thiophen-5-yl)methyl) phosphonic acid] are 300 to 3000 nM and less than 100 nM.
The corresponding values for `N#Cc1cnc(C2CN(C(=O)[C@@H]3CC[C@@H]4CCCC[C@H](NC(=O)c5cc6cc(C(F)(F)P(=O)(O)O)ccc6s5)C(=O)N43)C2)nc1` [Compound 806, ((2-(((3S,6S,10aS)-3-(3-(5-cyanopyrimidin-2-yl)azetidine-1-carbonyl)-5-oxodecahydropyrrolo [1,2-a]azocin-6-yl)carbamoyl)benzo [b]thiophen-5-yl)difluoromethyl) phosphonic acid] are 3000 to 30000 nM and less than 100 nM.
Consider `Cn1cnnc1C1(O)CN(C(=O)[C@@H]2CC[C@@H]3CCC[C@H](NC(=O)c4cc5cc(C(F)(F)P(=O)(O)O)ccc5s4)C(=O)N32)C1` [Compound 807, (difluoro(2-(((3S,6S,9aS)-3-(3-hydroxy-3-(4-methyl-4H-1,2,4-triazol-3-yl)azetidine-1-carbonyl)-5-oxooctahydro-1H-pyrrolo[1,2-a]azepin-6-yl)carbamoyl)benzo [b]thiophen-5-yl)methyl) phosphonic acid], for which the half-maximal inhibitory concentration (IC50) in test [1] was in the range of 300 to 3000 nM; in test [2], 100 to 1000 nM.
For the compound `CCOC1(c2nncn2C)CN(C(=O)[C@@H]2CC[C@@H]3CCC[C@H](NC(=O)c4cc5cc(C(F)(F)P(=O)(O)O)ccc5s4)C(=O)N32)C1` [Compound 808, ((2-(((3S,6S,9aS)-3-(3-ethoxy-3-(4-methyl-4H-1,2,4-triazol-3-yl)azetidine-1-carbonyl)-5-oxooctahydro-1H-pyrrolo[1,2-a]azepin-6-yl)carbamoyl)benzo [b]thiophen-5-yl)difluoromethyl) phosphonic acid], the half-inhibitory concentration (IC50) in test [1] is 3000 to 30000 nM; in test [2], 100 to 1000 nM.
The corresponding values for `O=C(N[C@H]1CCC[C@H]2CC[C@@H](C(=O)N3CC(c4nccc(O)n4)C3)N2C1=O)c1cc2cc(C(F)(F)P(=O)(O)O)ccc2s1` [Compound 809, (difluoro(2-(((3S,6S,9aS)-3-(3-(4-hydroxypyrimidin-2-yl)azetidine-1-carbonyl)-5-oxooctahydro-1H-pyrrolo[1,2-a]azepin-6-yl)carbamoyl)benzo [b]thiophen-5-yl)methyl) phosphonic acid] are 3000 to 30000 nM and less than 100 nM.
Take `N#Cc1cccc(C2CN(C(=O)[C@@H]3CC[C@@H]4CCC[C@H](NC(=O)c5cc6cc(C(F)(F)P(=O)(O)O)ccc6s5)C(=O)N43)C2)n1` [Compound 811, ((2-(((3S,6S,9aS)-3-(3-(6-cyanopyridin-2-yl)azetidine-1-carbonyl)-5-oxooctahydro-1H-pyrrolo[1,2-a]azepin-6-yl)carbamoyl)benzo [b]thiophen-5-yl)difluoromethyl) phosphonic acid]: the half-maximal inhibitory concentration (IC50) was 300 to 3000 nM in test [1] and less than 100 nM in test [2].
The corresponding values for `O=C(N[C@H]1CCC[C@H]2CC[C@@H](C(=O)N3CC(c4nccc(C(F)(F)F)n4)C3)N2C1=O)c1cc2cc(C(F)(F)P(=O)(O)O)ccc2s1` [Compound 812, (difluoro(2-(((3S,6S,9aS)-5-oxo-3-(3-(4-(trifluoromethyl)pyrimidin-2-yl)azetidine-1-carbonyl)octahydro-1H-pyrrolo[1,2-a]azepin-6-yl)carbamoyl)benzo [b]thiophen-5-yl)methyl) phosphonic acid] are 3000 to 30000 nM and 100 to 1000 nM.
As for `CC1(C)CC(c2ccccc2)CN1C(=O)[C@@H]1CC[C@@H]2CCCC[C@H](NC(=O)c3cc4cc(C(F)(F)P(=O)(O)O)ccc4s3)C(=O)N21` (stereo partly drawn) [Compound 813, ((2-(((3S,6S,10aS)-3-(2,2-dimethyl-4-phenylpyrrolidine-1-carbonyl)-5-oxodecahydropyrrolo [1,2-a]azocin-6-yl)carbamoyl)benzo [b]thiophen-5-yl)difluoromethyl) phosphonic acid], the half-maximal inhibitory concentration (IC50) lay in the range of 300 to 3000 nM in test [1] and 1000 to 10000 nM in test [2].
The corresponding values for `CC1(C)C[C@@H](c2ccccc2)CN1C(=O)[C@@H]1CC[C@@H]2CCCC[C@H](NC(=O)c3cc4cc(C(F)(F)P(=O)(O)O)ccc4s3)C(=O)N21` [Compound 814, ((2-(((3S,6S,10aS)-3-((S)-2,2-dimethyl-4-phenylpyrrolidine-1-carbonyl)-5-oxodecahydropyrrolo [1,2-a]azocin-6-yl)carbamoyl)benzo [b]thiophen-5-yl)difluoromethyl) phosphonic acid] are 300 to 3000 nM and 1000 to 10000 nM.
In the case of `CC1(C)C[C@H](c2ccccc2)CN1C(=O)[C@@H]1CC[C@@H]2CCCC[C@H](NC(=O)c3cc4cc(C(F)(F)P(=O)(O)O)ccc4s3)C(=O)N21` [Compound 815, ((2-(((3S,6S,10aS)-3-((R)-2,2-dimethyl-4-phenylpyrrolidine-1-carbonyl)-5-oxodecahydropyrrolo [1,2-a]azocin-6-yl)carbamoyl)benzo [b]thiophen-5-yl)difluoromethyl) phosphonic acid], the half-maximal inhibitory concentration (IC50) in test [1] is 300 to 3000 nM; in test [2], 1000 to 10000 nM.
In the case of `O=C(N[C@H]1CCCC[C@H]2CC[C@@H](C(=O)N3CC(c4ccc(=O)[nH]c4)C3)N2C1=O)c1cc2cc(C(F)(F)P(=O)(O)O)ccc2s1` [Compound 816, (difluoro(2-(((3S,6S,10aS)-5-oxo-3-(3-(6-oxo-1,6-dihydropyridin-3-yl)azetidine-1-carbonyl)decahydropyrrolo[1,2-a]azocin-6-yl)carbamoyl)benzo [b]thiophen-5-yl)methyl) phosphonic acid], the values for the concentration for half-maximal inhibition (IC50) in test [1] and in test [2] were 3000 to 30000 nM and 100 to 1000 nM, respectively.
As to `O=C(N[C@H]1CCC[C@H]2CC[C@@H](C(=O)N3CC(c4ncc(C5CC5)cn4)C3)N2C1=O)c1cc2cc(C(F)(F)P(=O)(O)O)ccc2s1` [Compound 817, ((2-(((3S,6S,9aS)-3-(3-(5-cyclopropyl-pyrimidin-2-yl)azetidine-1-carbonyl)-5-oxooctahydro-1H-pyrrolo[1,2-a]azepin-6-yl)carbamoyl)benzo [b]thiophen-5-yl)difluoromethyl) phosphonic acid], the IC50 in test [1] lay in the range of 3000 to 30000 nM; in test [2], 1000 to 10000 nM.
The corresponding values for `Cc1ccnnc1C1CN(C(=O)[C@@H]2CC[C@@H]3CCC[C@H](NC(=O)c4cc5cc(C(F)(F)P(=O)(O)O)ccc5s4)C(=O)N32)C1` [Compound 818, (difluoro(2-(((3S,6S,9aS)-3-(3-(4-methylpyridazin-3-yl)azetidine-1-carbonyl)-5-oxooctahydro-1H-pyrrolo[1,2-a]azepin-6-yl)carbamoyl)benzo [b]thiophen-5-yl)methyl) phosphonic acid] are 3000 to 30000 nM and 100 to 1000 nM.
